{"source": "the supplement of paper PMC11208160", "test": "recombinant barcode read abundance after kanamycin selection (control-corrected) (log10(CPM+1)); higher = more efficient recombination; sequences stand for … in AGTGCAGAGAAAATCGGCCAGTTTTCTCTGCCTGCAGTCCGCATGCCGT…ATTTATGCAGCGGACTGCCTTTCTCCCAAAGTGATAAACCGGACAGTATCATGGACCGGTTTTCCCGGTAATCCGTATTTGCAAGGTTGGTTTCACT; site = the 11-nt target", "method_in_brief": "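Oligos holding a promoter, target, barcode and the J23119-driven first 104 bases of the bridge RNA were Gibson-cloned into a vector that supplied the other 73 bp plus a T7-inducible recombinase. This library was co-electroporated with a donor plasmid into E. coli. Two replicates went on chloramphenicol/ampicillin LB agar (control) and two on chloramphenicol/ampicillin/kanamycin with 0.1 mM IPTG. Recombination efficiency is read from averaged, control-corrected barcode counts per million at recombinant junctions, reported as log10(CPM+1).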"}
{"sequence": "GCGCGACCTTGGGTTCTAACCTGTTGCTTTT [GCGCGACCTAA_LTGcore_CT_RTGcore_AA] (site GCGCGACCTAA) (LTG core: CT, RTG core: AA)", "values": [{"measurement": "recombinant barcode read abundance (log10)", "value": 0.0792}]}
{"sequence": "GCGCGACTCTGGGTTCTAACCTGTTGCTTAG [GCGCGACCTAA_LTGcore_TC_RTGcore_CT] (site GCGCGACCTAA) (LTG core: TC, RTG core: CT)", "values": [{"measurement": "recombinant barcode read abundance (log10)", "value": 0}]}
{"sequence": "GCGCGACTGTGGGTTCTAACCTGTTGCTTCA [GCGCGACCTAA_LTGcore_TG_RTGcore_TG] (site GCGCGACCTAA) (LTG core: TG, RTG core: TG)", "values": [{"measurement": "recombinant barcode read abundance (log10)", "value": 0.0758}]}
{"sequence": "GCGCGACTTTGGGTTCTAACCTGTTGCTTAG [GCGCGACCTAA_LTGcore_TT_RTGcore_CT] (site GCGCGACCTAA) (LTG core: TT, RTG core: CT)", "values": [{"measurement": "recombinant barcode read abundance (log10)", "value": 0.109}]}
{"sequence": "GCGGGACATTGGGTTCTAACCTGTTGCCTAG [GCGGGACCTAG_LTGcore_AT_RTGcore_CT] (site GCGGGACCTAG) (LTG core: AT, RTG core: CT)", "values": [{"measurement": "recombinant barcode read abundance (log10)", "value": 0.17}]}
{"sequence": "GCGGGACCATGGGTTCTAACCTGTTGCCTTG [GCGGGACCTAG_LTGcore_CA_RTGcore_CA] (site GCGGGACCTAG) (LTG core: CA, RTG core: CA)", "values": [{"measurement": "recombinant barcode read abundance (log10)", "value": 0.182}]}
{"sequence": "GCGGGACCCTGGGTTCTAACCTGTTGCCTAG [GCGGGACCTAG_LTGcore_CC_RTGcore_CT] (site GCGGGACCTAG) (LTG core: CC, RTG core: CT)", "values": [{"measurement": "recombinant barcode read abundance (log10)", "value": 1.21}]}
{"sequence": "GCGGGACCGTGGGTTCTAACCTGTTGCCTAG [GCGGGACCTAG_LTGcore_CG_RTGcore_CT] (site GCGGGACCTAG) (LTG core: CG, RTG core: CT)", "values": [{"measurement": "recombinant barcode read abundance (log10)", "value": 0.76}]}
{"sequence": "GCGGGACCTTGGGTTCTAACCTGTTGCCTGC [GCGGGACCTAG_LTGcore_CT_RTGcore_GC] (site GCGGGACCTAG) (LTG core: CT, RTG core: GC)", "values": [{"measurement": "recombinant barcode read abundance (log10)", "value": 1.08}]}
{"sequence": "GCGGGACCTTGGGTTCTAACCTGTTGCCTTA [GCGGGACCTAG_LTGcore_CT_RTGcore_TA] (site GCGGGACCTAG) (LTG core: CT, RTG core: TA)", "values": [{"measurement": "recombinant barcode read abundance (log10)", "value": 1.18}]}
{"sequence": "GCGGGACCTTGGGTTCTAACCTGTTGCCTTC [GCGGGACCTAG_LTGcore_CT_RTGcore_GA] (site GCGGGACCTAG) (LTG core: CT, RTG core: GA)", "values": [{"measurement": "recombinant barcode read abundance (log10)", "value": 1.19}]}
{"sequence": "GCGGGACGTTGGGTTCTAACCTGTTGCCTAC [GCGGGACCTAG_LTGcore_GT_RTGcore_GT] (site GCGGGACCTAG) (LTG core: GT, RTG core: GT)", "values": [{"measurement": "recombinant barcode read abundance (log10)", "value": 0.163}]}
{"sequence": "GCGGGACTTTGGGTTCTAACCTGTTGCCTAG [GCGGGACCTAG_LTGcore_TT_RTGcore_CT] (site GCGGGACCTAG) (LTG core: TT, RTG core: CT)", "values": [{"measurement": "recombinant barcode read abundance (log10)", "value": 0.13}]}
{"sequence": "GGACACCATTGGGTTCTAACCTGTTGCCTAG [GGACACCCTAG_LTGcore_AT_RTGcore_CT] (site GGACACCCTAG) (LTG core: AT, RTG core: CT)", "values": [{"measurement": "recombinant barcode read abundance (log10)", "value": 0.15}]}
{"sequence": "GGACACCATTGGGTTCTAACCTGTTGCCTAT [GGACACCCTAG_LTGcore_AT_RTGcore_AT] (site GGACACCCTAG) (LTG core: AT, RTG core: AT)", "values": [{"measurement": "recombinant barcode read abundance (log10)", "value": 0.145}]}
{"sequence": "GGACACCCTTGGGTTCTAACCTGTTGCCTAA [GGACACCCTAG_LTGcore_CT_RTGcore_TT] (site GGACACCCTAG) (LTG core: CT, RTG core: TT)", "values": [{"measurement": "recombinant barcode read abundance (log10)", "value": 1.19}]}
{"sequence": "GGACACCCTTGGGTTCTAACCTGTTGCCTCC [GGACACCCTAG_LTGcore_CT_RTGcore_GG] (site GGACACCCTAG) (LTG core: CT, RTG core: GG)", "values": [{"measurement": "recombinant barcode read abundance (log10)", "value": 0.904}]}
{"sequence": "GGACACCCTTGGGTTCTAACCTGTTGCCTCT [GGACACCCTAG_LTGcore_CT_RTGcore_AG] (site GGACACCCTAG) (LTG core: CT, RTG core: AG)", "values": [{"measurement": "recombinant barcode read abundance (log10)", "value": 0.545}]}
{"sequence": "GGACACCCTTGGGTTCTAACCTGTTGCCTGG [GGACACCCTAG_LTGcore_CT_RTGcore_CC] (site GGACACCCTAG) (LTG core: CT, RTG core: CC)", "values": [{"measurement": "recombinant barcode read abundance (log10)", "value": 0.503}]}
{"sequence": "GGACACCCTTGGGTTCTAACCTGTTGCCTTA [GGACACCCTAG_LTGcore_CT_RTGcore_TA] (site GGACACCCTAG) (LTG core: CT, RTG core: TA)", "values": [{"measurement": "recombinant barcode read abundance (log10)", "value": 1.36}]}
{"sequence": "GGACACCCTTGGGTTCTAACCTGTTGCCTTT [GGACACCCTAG_LTGcore_CT_RTGcore_AA] (site GGACACCCTAG) (LTG core: CT, RTG core: AA)", "values": [{"measurement": "recombinant barcode read abundance (log10)", "value": 1.04}]}
{"sequence": "GGACACCGCTGGGTTCTAACCTGTTGCCTGC [GGACACCCTAG_LTGcore_GC_RTGcore_GC] (site GGACACCCTAG) (LTG core: GC, RTG core: GC)", "values": [{"measurement": "recombinant barcode read abundance (log10)", "value": 0.0534}]}
{"sequence": "GGACACCGGTGGGTTCTAACCTGTTGCCTCC [GGACACCCTAG_LTGcore_GG_RTGcore_GG] (site GGACACCCTAG) (LTG core: GG, RTG core: GG)", "values": [{"measurement": "recombinant barcode read abundance (log10)", "value": 0.0801}]}
{"sequence": "GGACACCGTTGGGTTCTAACCTGTTGCCTAC [GGACACCCTAG_LTGcore_GT_RTGcore_GT] (site GGACACCCTAG) (LTG core: GT, RTG core: GT)", "values": [{"measurement": "recombinant barcode read abundance (log10)", "value": 0.944}]}
{"sequence": "GGACACCTATGGGTTCTAACCTGTTGCCTAG [GGACACCCTAG_LTGcore_TA_RTGcore_CT] (site GGACACCCTAG) (LTG core: TA, RTG core: CT)", "values": [{"measurement": "recombinant barcode read abundance (log10)", "value": 0.094}]}
{"sequence": "GGACACCTATGGGTTCTAACCTGTTGCCTTA [GGACACCCTAG_LTGcore_TA_RTGcore_TA] (site GGACACCCTAG) (LTG core: TA, RTG core: TA)", "values": [{"measurement": "recombinant barcode read abundance (log10)", "value": 0}]}
{"sequence": "GGCTCCCAATGGGTTCTAACCTGTTGCGGTT [GGCTCCCCTCC_LTGcore_AA_RTGcore_AA] (site GGCTCCCCTCC) (LTG core: AA, RTG core: AA)", "values": [{"measurement": "recombinant barcode read abundance (log10)", "value": 0.102}]}
{"sequence": "GGCTCCCCATGGGTTCTAACCTGTTGCGGAG [GGCTCCCCTCC_LTGcore_CA_RTGcore_CT] (site GGCTCCCCTCC) (LTG core: CA, RTG core: CT)", "values": [{"measurement": "recombinant barcode read abundance (log10)", "value": 0.0917}]}
{"sequence": "GGCTCCCCTTGGGTTCTAACCTGTTGCGGAT [GGCTCCCCTCC_LTGcore_CT_RTGcore_AT] (site GGCTCCCCTCC) (LTG core: CT, RTG core: AT)", "values": [{"measurement": "recombinant barcode read abundance (log10)", "value": 0.0958}]}
{"sequence": "GGCTCCCCTTGGGTTCTAACCTGTTGCGGCC [GGCTCCCCTCC_LTGcore_CT_RTGcore_GG] (site GGCTCCCCTCC) (LTG core: CT, RTG core: GG)", "values": [{"measurement": "recombinant barcode read abundance (log10)", "value": 0.131}]}
{"sequence": "GGCTCCCCTTGGGTTCTAACCTGTTGCGGTA [GGCTCCCCTCC_LTGcore_CT_RTGcore_TA] (site GGCTCCCCTCC) (LTG core: CT, RTG core: TA)", "values": [{"measurement": "recombinant barcode read abundance (log10)", "value": 0.101}]}
{"sequence": "GGCTCCCCTTGGGTTCTAACCTGTTGCGGTC [GGCTCCCCTCC_LTGcore_CT_RTGcore_GA] (site GGCTCCCCTCC) (LTG core: CT, RTG core: GA)", "values": [{"measurement": "recombinant barcode read abundance (log10)", "value": 0.0253}]}
{"sequence": "GGCTCCCCTTGGGTTCTAACCTGTTGCGGTG [GGCTCCCCTCC_LTGcore_CT_RTGcore_CA] (site GGCTCCCCTCC) (LTG core: CT, RTG core: CA)", "values": [{"measurement": "recombinant barcode read abundance (log10)", "value": 0.251}]}
{"sequence": "GGCTCCCGGTGGGTTCTAACCTGTTGCGGCC [GGCTCCCCTCC_LTGcore_GG_RTGcore_GG] (site GGCTCCCCTCC) (LTG core: GG, RTG core: GG)", "values": [{"measurement": "recombinant barcode read abundance (log10)", "value": 0.203}]}
{"sequence": "GGCTCCCGTTGGGTTCTAACCTGTTGCGGAC [GGCTCCCCTCC_LTGcore_GT_RTGcore_GT] (site GGCTCCCCTCC) (LTG core: GT, RTG core: GT)", "values": [{"measurement": "recombinant barcode read abundance (log10)", "value": 0.259}]}
{"sequence": "GGCTCCCTTTGGGTTCTAACCTGTTGCGGAA [GGCTCCCCTCC_LTGcore_TT_RTGcore_TT] (site GGCTCCCCTCC) (LTG core: TT, RTG core: TT)", "values": [{"measurement": "recombinant barcode read abundance (log10)", "value": 0.0992}]}
{"sequence": "GGCTCCCTTTGGGTTCTAACCTGTTGCGGAG [GGCTCCCCTCC_LTGcore_TT_RTGcore_CT] (site GGCTCCCCTCC) (LTG core: TT, RTG core: CT)", "values": [{"measurement": "recombinant barcode read abundance (log10)", "value": 0.0927}]}
{"sequence": "GGGAGCCAATGGGTTCTAACCTGTTGCTGAG [GGGAGCCCTCA_LTGcore_AA_RTGcore_CT] (site GGGAGCCCTCA) (LTG core: AA, RTG core: CT)", "values": [{"measurement": "recombinant barcode read abundance (log10)", "value": 0.235}]}
{"sequence": "GGGAGCCATTGGGTTCTAACCTGTTGCTGAT [GGGAGCCCTCA_LTGcore_AT_RTGcore_AT] (site GGGAGCCCTCA) (LTG core: AT, RTG core: AT)", "values": [{"measurement": "recombinant barcode read abundance (log10)", "value": 0.574}]}
{"sequence": "GGGAGCCCTTGGGTTCTAACCTGTTGCTGCA [GGGAGCCCTCA_LTGcore_CT_RTGcore_TG] (site GGGAGCCCTCA) (LTG core: CT, RTG core: TG)", "values": [{"measurement": "recombinant barcode read abundance (log10)", "value": 0.122}]}
{"sequence": "GGGAGCCCTTGGGTTCTAACCTGTTGCTGCG [GGGAGCCCTCA_LTGcore_CT_RTGcore_CG] (site GGGAGCCCTCA) (LTG core: CT, RTG core: CG)", "values": [{"measurement": "recombinant barcode read abundance (log10)", "value": 0.147}]}
{"sequence": "GGGAGCCCTTGGGTTCTAACCTGTTGCTGTG [GGGAGCCCTCA_LTGcore_CT_RTGcore_CA] (site GGGAGCCCTCA) (LTG core: CT, RTG core: CA)", "values": [{"measurement": "recombinant barcode read abundance (log10)", "value": 0.589}]}
{"sequence": "GGGAGCCTTTGGGTTCTAACCTGTTGCTGAG [GGGAGCCCTCA_LTGcore_TT_RTGcore_CT] (site GGGAGCCCTCA) (LTG core: TT, RTG core: CT)", "values": [{"measurement": "recombinant barcode read abundance (log10)", "value": 0.364}]}
{"sequence": "GGGCGGAAATGGGTTCTAACCTGTTGCGGAG [GGGCGGACTCC_LTGcore_AA_RTGcore_CT] (site GGGCGGACTCC) (LTG core: AA, RTG core: CT)", "values": [{"measurement": "recombinant barcode read abundance (log10)", "value": 0.131}]}
{"sequence": "GGGCGGACATGGGTTCTAACCTGTTGCGGAG [GGGCGGACTCC_LTGcore_CA_RTGcore_CT] (site GGGCGGACTCC) (LTG core: CA, RTG core: CT)", "values": [{"measurement": "recombinant barcode read abundance (log10)", "value": 2.27}]}
